Data published in ChEMBL document CHEMBL1201862, “PubChem BioAssay data set” (2004).
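Five concentrations, 48 hours, 96-well plates. Abbreviation: GI50, concentration required for 50% inhibition of growth.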 Calls of active or inactive are those of the source. Rule as the data show it: active = GI50 up to about 1.1 µM and inactive = higher.

Assays:
Assay in all cases: NCI tumour cell line growth inhibition, 48 h
HCT-116 = tested on: HCT-116
HOP-62 = tested on: HOP-62
K562 = tested on: K562
KM12 = tested on: KM12
MOLT-4 = tested on: MOLT-4
NCI-H23 = tested on: NCI-H23
NCI-H460 = tested on: NCI-H460
NCI-H522 = tested on: NCI-H522
OVCAR-5 = tested on: OVCAR-5
RPMI-8226 = tested on: RPMI-8226
SF-268 = tested on: SF-268
SK-OV-3 = tested on: SK-OV-3
SN12C = tested on: SN12C
SNB-75 = tested on: SNB-75
U-251 = tested on: U-251
UACC-257 = tested on: UACC-257
SF-539 = tested on: SF-539

SMILES	GI50 (HCT-116)	GI50 (HOP-62)	GI50 (K562)	GI50 (KM12)	GI50 (MOLT-4)	GI50 (NCI-H23)	GI50 (NCI-H460)	GI50 (NCI-H522)	GI50 (OVCAR-5)	GI50 (RPMI-8226)	GI50 (SF-268)	GI50 (SK-OV-3)	GI50 (SN12C)	GI50 (SNB-75)	GI50 (U-251)	GI50 (UACC-257)	GI50 (SF-539)
O=C(c1cc(=O)c2ccc(O)cc2o1)c1ccc(Cl)cc1Cl	13.6 µM (inactive)	8.18 µM (inactive)	0.547 µM (active)	5.9 µM (inactive)	2.81 µM (inactive)	24 µM (inactive)	6.01 µM (inactive)	9.89 µM (inactive)	> 74.8 µM (inactive)	9.66 µM (inactive)	13.8 µM (inactive)	> 62.1 µM (inactive)	17.2 µM (inactive)	> 82.2 µM (inactive)	20.6 µM (inactive)	19.5 µM (inactive)	
Cc1nc2c(n1C(C)(C)C)C(=O)c1ccccc1C2=O	54 µM (inactive)	> 100 µM (inactive)	49.7 µM (inactive)	74.1 µM (inactive)	49 µM (inactive)	37.8 µM (inactive)	36.7 µM (inactive)	44 µM (inactive)			54.5 µM (inactive)	> 100 µM (inactive)	50.5 µM (inactive)	31.9 µM (inactive)	84.5 µM (inactive)	42.6 µM (inactive)	> 100 µM (inactive)
CC1=CC(C)(c2c[nH]c3ccccc23)CC(C)(C)c2c1[nH]c1ccccc21 (centres undefined)	11.9 µM (inactive)	22.8 µM (inactive)	11.9 µM (inactive)	23.7 µM (inactive)	6.93 µM (inactive)	14.4 µM (inactive)	17 µM (inactive)		18 µM (inactive)	11.9 µM (inactive)	25.1 µM (inactive)	28.6 µM (inactive)	14.3 µM (inactive)	26.7 µM (inactive)	15.9 µM (inactive)	20.3 µM (inactive)	43.2 µM (inactive)
NC(=O)C12CC3CC(CC(Br)(C3)C1)C2	> 100 µM (inactive)	> 100 µM (inactive)		> 100 µM (inactive)	> 100 µM (inactive)	> 100 µM (inactive)	> 100 µM (inactive)	> 100 µM (inactive)	> 100 µM (inactive)	> 100 µM (inactive)	> 100 µM (inactive)	> 100 µM (inactive)	> 100 µM (inactive)	76.7 µM (inactive)	> 100 µM (inactive)	> 100 µM (inactive)	> 100 µM (inactive)
O=C(OCc1ccccc1)N1N=NC2C1C1CC(OCc3ccccc3)(OCc3ccccc3)C2O1 (centres undefined)		> 100 µM (inactive)	> 100 µM (inactive)	> 100 µM (inactive)	> 100 µM (inactive)	> 100 µM (inactive)	> 100 µM (inactive)		> 100 µM (inactive)	> 100 µM (inactive)	> 100 µM (inactive)	> 100 µM (inactive)	> 100 µM (inactive)	> 100 µM (inactive)	> 100 µM (inactive)	> 100 µM (inactive)	> 100 µM (inactive)
O=C1c2ccccc2C(=O)c2c1ccc1c3ccccc3n(Cc3ccccc3)c21	> 100 µM (inactive)	> 100 µM (inactive)	> 100 µM (inactive)	> 100 µM (inactive)	> 100 µM (inactive)		88.9 µM (inactive)	> 100 µM (inactive)	> 100 µM (inactive)	> 100 µM (inactive)	> 100 µM (inactive)	> 100 µM (inactive)	> 100 µM (inactive)	2.35 µM (inactive)			> 100 µM (inactive)
Cc1noc2cccc(O)c12	> 100 µM (inactive)	> 100 µM (inactive)	> 100 µM (inactive)	> 100 µM (inactive)	> 100 µM (inactive)	> 100 µM (inactive)	> 100 µM (inactive)	> 100 µM (inactive)	> 100 µM (inactive)		> 100 µM (inactive)	> 100 µM (inactive)	> 100 µM (inactive)	> 100 µM (inactive)	> 100 µM (inactive)	> 100 µM (inactive)	> 100 µM (inactive)
Cc1cc(N(CCC#N)CCC#N)ccc1/C=N\c1ccc(C(=O)NN2C(=O)/C(=C/c3ccc(N(CCC#N)CCC#N)cc3)N=C2c2cc([N+](=O)[O-])ccc2Cl)cc1	> 100 µM (inactive)	95.1 µM (inactive)	33 µM (inactive)	> 100 µM (inactive)		> 100 µM (inactive)	> 100 µM (inactive)		> 100 µM (inactive)	> 100 µM (inactive)	> 100 µM (inactive)	> 100 µM (inactive)	> 100 µM (inactive)	> 100 µM (inactive)	> 100 µM (inactive)	> 100 µM (inactive)	> 100 µM (inactive)
CC1(Sc2ccccc2)CN(Cc2ccccc2)C1=O (centres undefined)	60 µM (inactive)	> 100 µM (inactive)	77.8 µM (inactive)	> 100 µM (inactive)	49.7 µM (inactive)	> 100 µM (inactive)	> 100 µM (inactive)	60.3 µM (inactive)		57.3 µM (inactive)	> 100 µM (inactive)	> 100 µM (inactive)	> 100 µM (inactive)	39.6 µM (inactive)	> 100 µM (inactive)	54.5 µM (inactive)	> 100 µM (inactive)
